In patent US8007526B2, “Difunctionalized aromatic compounds and polymers therefrom” (Bezwada Biomedical, LLC, priority 2005, dated 2011):

Experiment: In vitro hydrolysis in Aldrich buffer at 100° C., monitored by TLC for disappearance of starting material
Type: physicochemical
Text: In Vitro Hydrolysis of Functionalized Aromatics
A compound and a polymer of the present invention were examined for their rates of hydrolysis as described below.

Compound: COC(=O)COC(=O)COc1ccc(C(=O)OCC(=O)OC)cc1 [Example 14, 4-Methoxycarbonylmethoxycarbonylmethoxy-benzoic acid methoxycarbonyl methyl ester]
- Hydrolyzed in (time to hydrolysis) (100 mg in 10 mL Aldrich pH 7.4 buffer): Hydrolyzed in 26.5 hours
- Hydrolyzed in (time to hydrolysis) (100 mg in 10 mL Aldrich pH 9 buffer, 1% solution): Hydrolyzed in 5 hours
